Tests used:
Experiment in all cases: viability relative to DMSO control (fraction); higher = less drug effect (more viable cells)
Settings in all cases: 48 h
[1] = test system: primary ALL patient cells (S048)
Summary of the method: (§1)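 Primary mononuclear tumour cells (Ficoll-isolated from blood or bone marrow, or processed lymph node; fresh or cryopreserved) were plated at 4 × 10^4 cells per well in 384-well plates with pre-plated compounds at five concentrations, one well each. Medium was RPMI-1640 with penicillin/streptomycin, L-glutamine and human serum, at 37 °C and 5% CO2 for 48 h. Viability was read as CellTiter-Glo luminescence relative to the median of 16 inner DMSO wells.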

[2] = test system: primary ALL patient cells (S088)
Summary of the method: as §1

[3] = test system: primary AML patient cells (S007)
Summary of the method: as §1

[4] = test system: primary AML patient cells (S011)
Summary of the method: as §1

[5] = test system: primary AML patient cells (S012)
Summary of the method: as §1

[6] = test system: primary AML patient cells (S019)
Summary of the method: as §1

[7] = test system: primary AML patient cells (S027)
Summary of the method: as §1

[8] = test system: primary AML patient cells (S056)
Summary of the method: as §1

[9] = test system: primary AML patient cells (S079)
Summary of the method: as §1

[10] = test system: primary AML patient cells (S085)
Summary of the method: as §1

[11] = test system: primary CLL patient cells (S031)
Summary of the method: as §1

[12] = test system: primary DLBCL patient cells (S049)
Summary of the method: as §1

[13] = test system: primary DLBCL patient cells (S076)
Summary of the method: as §1

[14] = test system: primary FL patient cells (S022)
Summary of the method: as §1

[15] = test system: primary FL patient cells (S087)
Summary of the method: as §1

[16] = test system: primary MCL patient cells (S041)
Summary of the method: as §1

[17] = test system: primary MCL patient cells (S063)
Summary of the method: as §1

[18] = test system: primary T-NHL patient cells (S058)
Summary of the method: as §1

[19] = test system: primary AML patient cells (S006)
Summary of the method: as §1

## Cc1sc2c(c1C)C(c1ccc(Cl)cc1)=N[C@@H](CC(=O)Nc1ccc(O)cc1)c1nnc(C)n1-2 [OTX015]
[1]; 0.016 µM
  viability: 1.1
[1]; 0.08 µM
  viability: 1.04
[1]; 0.4 µM
  viability: 0.552
[1]; 2 µM
  viability: 0.305
[1]; 10 µM
  viability: 0.241
[2]; 0.016 µM
  viability: 0.862
[2]; 0.08 µM
  viability: 0.726
[2]; 0.4 µM
  viability: 0.448
[2]; 2 µM
  viability: 0.394
[2]; 10 µM
  viability: 0.325
[3]; 0.016 µM
  viability: 1.16
[3]; 0.08 µM
  viability: 1.08
[3]; 0.4 µM
  viability: 0.561
[3]; 2 µM
  viability: 0.335
[3]; 10 µM
  viability: 0.24
[4]; 0.016 µM
  viability: 1
[4]; 0.08 µM
  viability: 0.899
[4]; 0.4 µM
  viability: 0.766
[4]; 2 µM
  viability: 0.742
[4]; 10 µM
  viability: 0.758
[5]; 0.016 µM
  viability: 0.989
[5]; 0.08 µM
  viability: 0.84
[5]; 0.4 µM
  viability: 0.565
[5]; 2 µM
  viability: 0.379
[5]; 10 µM
  viability: 0.267
[6]; 0.016 µM
  viability: 1.14
[6]; 0.08 µM
  viability: 1.12
[6]; 0.4 µM
  viability: 1.08
[6]; 2 µM
  viability: 0.985
[6]; 10 µM
  viability: 0.965
[7]; 0.016 µM
  viability: 0.93
[7]; 0.08 µM
  viability: 0.894
[7]; 0.4 µM
  viability: 0.73
[7]; 2 µM
  viability: 0.536
[7]; 10 µM
  viability: 0.408
[8]; 0.016 µM
  viability: 0.932
[8]; 0.08 µM
  viability: 0.885
[8]; 0.4 µM
  viability: 0.631
[8]; 2 µM
  viability: 0.255
[8]; 10 µM
  viability: 0.235
[9]; 0.016 µM
  viability: 0.812
[9]; 0.08 µM
  viability: 0.757
[9]; 0.4 µM
  viability: 0.568
[9]; 2 µM
  viability: 0.44
[9]; 10 µM
  viability: 0.403
[10]; 0.016 µM
  viability: 0.861
[10]; 0.08 µM
  viability: 0.614
[10]; 0.4 µM
  viability: 0.312
[10]; 2 µM
  viability: 0.191
[10]; 10 µM
  viability: 0.178
[11]; 0.016 µM
  viability: 0.983
[11]; 0.08 µM
  viability: 0.927
[11]; 0.4 µM
  viability: 0.77
[11]; 2 µM
  viability: 0.52
[11]; 10 µM
  viability: 0.405
[12]; 0.016 µM
  viability: 1.02
[12]; 0.08 µM
  viability: 0.891
[12]; 0.4 µM
  viability: 0.482
[12]; 2 µM
  viability: 0.2
[12]; 10 µM
  viability: 0.119
[13]; 0.016 µM
  viability: 1.05
[13]; 0.08 µM
  viability: 0.942
[13]; 0.4 µM
  viability: 0.802
[13]; 2 µM
  viability: 0.699
[13]; 10 µM
  viability: 0.6
[14]; 0.016 µM
  viability: 0.981
[14]; 0.08 µM
  viability: 0.971
[14]; 0.4 µM
  viability: 0.955
[14]; 2 µM
  viability: 0.897
[14]; 10 µM
  viability: 0.874
[15]; 0.016 µM
  viability: 1.02
[15]; 0.08 µM
  viability: 1.01
[15]; 0.4 µM
  viability: 0.913
[15]; 2 µM
  viability: 0.866
[15]; 10 µM
  viability: 0.805
[16]; 0.016 µM
  viability: 1.01
[16]; 0.08 µM
  viability: 1.01
[16]; 0.4 µM
  viability: 0.866
[16]; 2 µM
  viability: 0.806
[16]; 10 µM
  viability: 0.708
[17]; 0.016 µM
  viability: 1.14
[17]; 0.08 µM
  viability: 1.14
[17]; 0.4 µM
  viability: 0.91
[17]; 2 µM
  viability: 0.654
[17]; 10 µM
  viability: 0.566
[18]; 0.016 µM
  viability: 1.09
[18]; 0.08 µM
  viability: 0.875
[18]; 0.4 µM
  viability: 0.764
[18]; 2 µM
  viability: 0.576
[18]; 10 µM
  viability: 0.591

## Cc1nc(Nc2ncc(C(=O)Nc3c(C)cccc3Cl)s2)cc(N2CCN(CCO)CC2)n1 [Dasatinib]
[1]; 0.0016 µM
  viability: 1.05
[1]; 0.008 µM
  viability: 0.937
[1]; 0.04 µM
  viability: 0.911
[1]; 0.2 µM
  viability: 0.864
[1]; 1 µM
  viability: 0.926
[2]; 0.0016 µM
  viability: 0.899
[2]; 0.008 µM
  viability: 0.709
[2]; 0.04 µM
  viability: 0.62
[2]; 0.2 µM
  viability: 0.545
[2]; 1 µM
  viability: 0.631
[19]; 0.0016 µM
  viability: 0.961
[19]; 0.008 µM
  viability: 0.912
[19]; 0.04 µM
  viability: 0.88
[19]; 0.2 µM
  viability: 0.808
[3]; 0.0016 µM
  viability: 0.89
[3]; 0.008 µM
  viability: 0.964
[3]; 0.04 µM
  viability: 0.917
[3]; 0.2 µM
  viability: 0.837
[3]; 1 µM
  viability: 0.755
[4]; 0.0016 µM
  viability: 1.06
[4]; 0.008 µM
  viability: 0.884
[4]; 0.04 µM
  viability: 0.909
[4]; 0.2 µM
  viability: 0.882
[4]; 1 µM
  viability: 0.936
[5]; 0.0016 µM
  viability: 0.993
[5]; 0.008 µM
  viability: 0.917
[5]; 0.04 µM
  viability: 1.01
[5]; 0.2 µM
  viability: 1
[5]; 1 µM
  viability: 1.01
[6]; 0.0016 µM
  viability: 1.14
[6]; 0.008 µM
  viability: 1.14
[6]; 0.04 µM
  viability: 1.07
[6]; 0.2 µM
  viability: 0.986
[6]; 1 µM
  viability: 1.02
[7]; 0.0016 µM
  viability: 1.06
[8]; 0.0016 µM
  viability: 0.859
[8]; 0.008 µM
  viability: 1.03
[8]; 0.04 µM
  viability: 0.748
[8]; 0.2 µM
  viability: 0.63
[8]; 1 µM
  viability: 0.572
[9]; 0.0016 µM
  viability: 0.973
[9]; 0.008 µM
  viability: 0.911
[9]; 0.04 µM
  viability: 0.863
[9]; 0.2 µM
  viability: 0.812
[9]; 1 µM
  viability: 1.04
[10]; 0.0016 µM
  viability: 0.943
[10]; 0.008 µM
  viability: 0.736
[10]; 0.04 µM
  viability: 0.691
[10]; 0.2 µM
  viability: 0.605
[10]; 1 µM
  viability: 0.91
[11]; 0.0016 µM
  viability: 0.944
[11]; 0.008 µM
  viability: 0.609
[11]; 0.04 µM
  viability: 0.393
[11]; 0.2 µM
  viability: 0.325
[11]; 1 µM
  viability: 0.313
[12]; 0.0016 µM
  viability: 0.952
[12]; 0.008 µM
  viability: 0.83
[12]; 0.04 µM
  viability: 0.814
[12]; 0.2 µM
  viability: 0.497
[12]; 1 µM
  viability: 0.33
[13]; 0.0016 µM
  viability: 0.835
[13]; 0.008 µM
  viability: 0.672
[13]; 0.04 µM
  viability: 0.628
[13]; 0.2 µM
  viability: 0.532
[13]; 1 µM
  viability: 0.535
[14]; 0.0016 µM
  viability: 0.931
[14]; 0.008 µM
  viability: 0.857
[14]; 0.04 µM
  viability: 0.841
[14]; 0.2 µM
  viability: 0.773
[14]; 1 µM
  viability: 0.698
[15]; 0.0016 µM
  viability: 0.914
[15]; 0.008 µM
  viability: 0.782
[15]; 0.04 µM
  viability: 0.747
[15]; 0.2 µM
  viability: 0.753
[15]; 1 µM
  viability: 0.742
[16]; 0.0016 µM
  viability: 0.903
[16]; 0.008 µM
  viability: 0.79
[16]; 0.04 µM
  viability: 0.723
[16]; 0.2 µM
  viability: 0.67
[16]; 1 µM
  viability: 0.6
[17]; 0.0016 µM
  viability: 1
[17]; 0.008 µM
  viability: 0.653
[17]; 0.04 µM
  viability: 0.245
[17]; 0.2 µM
  viability: 0.151
[17]; 1 µM
  viability: 0.118
[18]; 0.0016 µM
  viability: 0.962
[18]; 0.008 µM
  viability: 0.836
[18]; 0.04 µM
  viability: 0.861
[18]; 0.2 µM
  viability: 0.834
[18]; 1 µM
  viability: 0.855

Source: the supplement of paper PMC10733146
